{
  "source": "patent US9051345B2",
  "about": "“Metalloinsertor complexes targeted to DNA mismatches” (CALIFORNIA INSTITUTE OF TECHNOLOGY, priority 2011, dated 2015)",
  "type_in_all_cases": "cell-based, human",
  "key": {"HCT116N cells [1]": {"tested_on": "HCT116N cells", "assay": "MTT cytotoxicity assay", "settings": "72 hours", "method": "Cytotoxicity assays were performed as described in Mosmann, 1983, J. Immunol. Methods, 65, 55-63, the entire contents of which is incorporated herein by reference. HCT116N and HCT116O cells were plated in 96-well plates at 50,000 cells/well and incubated with rhodium for the durations specified. After incubation with the indicated rhodium complexes, cells were labeled with MTT for 4 hours at 37° C. under 5% CO2 and humidified atmosphere. The resulting formazan crystals were dissolved with solubilizing reagent purchased from Roche according to the manufacturer's instructions. The dissolved formazan was quantified as the absorbance at 570 nm minus the background absorbance at 690 nm. Percent viability was determined as the ratio of the amount of formazan in the treated cells to that of the untreated cells.\nIn order to elucidate the mechanism of action for the cytotoxicity caused by a metalloinsertor complex of Formula I, the MTT cytotoxicity assay was repeated in the absence and presence of the pan-caspase inhibitor Z-VAD-FMK. This inhibitor works by irreversibly binding to the active site of caspases which participate in the apoptotic pathway. Z-VAD-FMK was added to a final concentration of 20 μM. The HCT116N and HCT116O cell lines were treated with 0-30 μM of the [Rh(HDPA)2chrysi]^3+ complex for 24-72 hours. In addition, each treatment was also combined with the inhibitor at a final concentration of 20 μM.\nIn order to determine the mechanism of action for cytotoxicity caused by a metalloinsertor complex of Formula I, the MTT cytotoxicity assay was repeated in conjunction with a panel of poly-ADP ribose polymerase (PARP) inhibitors: DPQ, 3-AB, 4-AN, and ABT-888, as described in Costantino et al., 2001, J. Med. Chem., 44, 3786-3794; Purnell et al., 1980, Biochem. J. 185, 775-777; Banasik et al., 1992, J. Biol. Chem. 267, 1569-1575; and Donawho et al., 2007, Clin. Cancer Res., 13, 2728-2737, the entire contents of all of which are incorporated herein by reference. […]"}, "[2]": {"tested_on": "HCT116N and HCT116O cells", "assay": "ICP-MS assay for cellular rhodium levels, whole cell lysates", "settings": "10 μM; 48 hours; compared to [Rh(bpy)2chrysi]^3+ or [Rh(NH3)4chrysi]^3+", "method": "To assay the subcellular localization of the rhodium complexes, an inductively coupled plasma mass spectrometry (ICP-MS) assay was used to quantify the uptake of the complexes in both whole cell extracts and nuclear and mitochondrial fractions.\nEach cell line was treated with 10 μM of each rhodium complex as indicated in FIG. 33A (except [Rh(DIP)2(chrysi]^3+ which was administered at 2 μM) for 1, 3, 6, 12, 24, or 48 hours. After rhodium incubation, the cells were harvested from adherent culture by trypsinization, washed with cold PBS, and counted by hemacytometer. The samples were pelleted and resuspended in 1% HNO3 (v/v), homogenized by three freeze/thaw cycles in liquid nitrogen, and analyzed for rhodium content on an HP-4500 ICP-MS unit. Rhodium counts were normalized to the number of cells counted in each sample before lysate preparation. Standard errors for three independent experiments are shown."}, "HCT116N cells [3]": {"tested_on": "HCT116N cells", "assay": "Cell death mode flow cytometry assay (YO-PRO-1 / PI dye exclusion)", "settings": "20 μM, 72 hours, untreated 62±0.6%", "text": "(§1) To characterize the cell death occurring in response to rhodium treatment, a dye exclusion flow cytometry assay was used as described in Idziorek et al., 1995 J. Immunol. Methods, 185, 249-258, the entire contents of which is incorporated herein by reference. The assay differentiates between live cells, dead cells, and cells undergoing apoptosis or necrosis through concurrent staining with propidium iodide (a dead cell permeable dye) and YO-PRO-1 (an apoptotic cell permeable dye). By plotting the fluorescence of the YO-PRO-1 channel against the PI channel, a pattern emerges. Healthy cells are seen in the lower lefthand corner of the plot in FIGS. 36A-36D. […] Dead cells admit both dyes and are therefore seen in the upper righthand quadrant of the image. Upon flow cytometry analysis, cells can be classified as live, apoptotic, necrotic, or dead by defining regions in the fluorescence plane corresponding to each category.\n(§2) The HCT116N and HCT116O cell lines were incubated with 0-25 μM of [Rh(HDPA)2chrysi]^3+ for 24-72 hours. After harvesting the cells and staining with both PI and YO-PRO-1, the cells were analyzed by flow cytometry to obtain raw fluorescence data. Representative data for 20 μM rhodium treatment for 72 hours are shown. YO-PRO-1 fluorescence is shown on the y-axis, and PI fluorescence is shown on the x-axis. The raw data were analyzed by gating the fluorescence events into one of four categories, depending on the fluorescence levels of the two dyes. FIGS. 37A-37B also show histograms of live, apoptotic, necrotic, and dead cells for the HCT116N and HCT116O cell lines based on the flow cytometry. Treatment with the indicated rhodium complex was either 15 or 20 µM [Rh(HDPA)2chrysi]^3+ for 72 hours.\n(§3) After 24, 48, or 72 hour incubation with the selected rhodium complex, cells were harvested from adherent culture by trypsinization and washed with cold PBS, and centrifuged at 2,000 rpm for 5 minutes. The resultant pellets were resuspended in PBS to a concentration of 10^6 cells/mL and stained with propidium iodide to a final concentration of 1 μg/mL and with YO-PRO-1 (an apoptotic cell permeable dye) to a final concentration of 200 nM for 30 minutes prior to analysis by flow cytometry."}, "HCT116O cells": {"tested_on": "HCT116O cells", "assay": "Cell death mode flow cytometry assay (YO-PRO-1 / PI dye exclusion)", "settings": "for mode of cell death: YO-PRO-1 and PI, HCT116O versus HCT116N", "text": "as §1, §2, §3"}},
  "data": [
    {"substance": "[Rh(HDPA)2chrysi]^3+", "values": [
      {"measurement": "number of viable HCT116N cells, % of untreated controls", "setting": "HCT116N cells [1]; 20 μM", "result": "80±5.2", "unit": "%"},
      {"measurement": "cell viability HCT116N with caspase inhibitor", "setting": "HCT116N cells [1]; 30 μM metal complex, with Z-VAD-FMK at 20 M (so in the source)", "result": "52±9.8", "unit": "%"},
      {"measurement": "cell viability HCT116N", "setting": "HCT116N cells [1]; 30 μM metal complex, without inhibitor", "result": "63±5.7", "unit": "%"},
      {"measurement": "cellular uptake (rhodium accumulation in whole cell lysates)", "setting": "[2]", "result": "increase in cellular uptake"},
      {"measurement": "live cells HCT116N after treatment", "setting": "HCT116N cells [3]", "result": "54±5.1", "unit": "%"},
      {"measurement": "live cells HCT116O after treatment", "setting": "HCT116O cells; 20 μM, 72 hours, untreated 79±3.8%", "result": "37±5.3", "unit": "%"},
      {"measurement": "mode of cell death", "setting": "HCT116O cells", "result": "induces necrosis preferentially in the MMR-deficient HCT116O cell line"},
      {"measurement": "mode of cell death", "setting": "HCT116O cells; listed as [Rh(HDPA)2chrysi]3^+", "result": "necrotic rather than apoptotic pathway"},
      {"measurement": "change in percentage of cells in the apoptotic region", "setting": "HCT116O cells; either cell line", "result": "no significant change"}
    ]}
  ]
}
